Measured values taken from PubChem BioAssay AID2060889 (Molecular Pharmacology Branch, DTP, NCI, 2025).
pIC50: −log10 of the molar value.

System: LG0567-F671-PDC complex spheroids viability
Assay: Anticancer human tumor LG0567-F671-PDC patient-derived lung adenocarcinoma cell line growth inhibition [RAS]
Conditions: for pIC50: curve of first compound; for viability, T/C: stronger effect = lower value
Description: RAS pathway inhibitors in Combinations in Complex Spheroids
A high-throughput screen of multi-cell type tumor spheroids was designed to identify active combinations of RAS pathway inhibitors and targeted small molecules. Complex spheroids include a stromal component modeled by human endothelial cells (HUVEC) and fibroblasts modeled by human mesenchymal stem cells (MSCs). The concentration ranges selected for each drug and investigational agent were based upon clinically achievable concentrations if the clinical Cmax of the agent was known.
Compounds. The drugs and investigational agents: abemaciclib (NSC768073), cobimetinib (NSC768068), divarasib (GDC6063, NSC841802), docetaxel (NSC628503), GDC-1971 (RLY-1971, NSC841576), gemcitabine (NSC613327), inavolisib (NSC800729), ipatasertib (NSC767898), KB-0742 (NSC834161), MRTX-1133 (NSC836407), osimertinib (NSC779217), RMC-4630 (NSC839698), RMC-6236 (NSC851965), RMC-6291 (NSC852671), Ro-3306 (NSC812927), sapanisertib (NSC764658), SN-38 (NSC673596), staurosporine (NSC755774), SY5609 (NSC837396), and tovorafenib (DAY101, NSC766906), were obtained from the National Cancer Institute (NCI) Developmental Therapeutics Program Chemical Repository. The FDA-approved anticancer drug set is available from the NCI Developmental Therapeutics Program. […] The stock solutions were prepared in dimethyl sulfoxide (DMSO, Sigma-Aldrich, St. Louis, MO, cat. D2650) at 800-fold the tested concentration and stored at -70 degrees C prior to their use. All drugs and investigational agents were tested over a range starting from a high concentration at or near the clinical Cmax and decreasing in half-log increments. If the clinical Cmax for an agent had not been determined, the highest concentration tested was 10 microM.
Cell Culture. All cells were maintained in an incubator at 37 degrees C and 5% CO2 with 95% humidity. The PDC lines were cultured according to standard operating procedures established by the NCI PDMR. All PDCs were thawed and cultured in Matrigel-coated flasks prepared with a working solution of 1X Ham's F-12 nutrient mix, without supplementation (Invitrogen, Waltham, MA, cat. 11765054), 100 U/mL penicillin-streptomycin (Invitrogen, cat. 15140122), and 2.5% Matrigel (Corning Inc., Corning, NY, cat. 354248) for the first three passages. The 362531-283-R-J2-PDC and 782815-120-R-J1-PDC lines were cultured in 6C/Colon 1B media, which includes advanced DMEM/F-12 (Thermo Fisher Scientific, cat. 12634028), 10 mM HEPES (Thermo Fisher Scientific, cat. 15630080), 1X GlutaMAX supplement (Thermo Fisher Scientific, cat. 35050061), 0.1 mg/mL primocin (InvivoGen, San Diego, CA, cat. ant-pm-2), 10% defined fetal bovine serum, heat inactivated (HyClone Laboratories Inc., Logan, UT, cat. SH30070.03HI), 50% L-WRN conditioned media (ATCC, cat. CRL-3276), 1.25 mM N-Acetyl-L-cysteine (Sigma-Aldrich, cat. A9165), 10 mM nicotinamide (Sigma-Aldrich, cat. N0636), 1X B-27 supplement (Thermo Fisher Scientific, cat. 17504044), 1X N-2 supplement (Thermo Fisher Scientific, cat. 17502048), 50 ng/mL human EGF (Thermo Fisher Scientific, cat. PHG0311), and 10 microM Y-27632 dihydrochloride (Tocris Bioscience, cat. 1254). The K12877-001-R-J1-PDC line was cultured in 6I media, which includes all 6C/Colon 1B media plus 10 ng/mL human FGF-10 (PeproTech, cat. 100-26), 1 ng/mL human FGF-2 (PeproTech, cat. 100-18B), 1 µM prostaglandin E2 (Tocris Bioscience, cat. 2296), […] hydrocortisone (Sigma-Aldrich, cat. H4001), and […] bovine insulin (Sigma-Aldrich, cat. I6634). The K86415-001-R-J1-PDC line was cultured in 6D media, which includes all 6C/Colon 1B media components minus the L-WRN conditioned media. The 485176-168-R4-J1-PDC was cultured in PANC media, which includes all 6C/Colon 1B media plus 100 ng/mL human FGF-10 (PeproTech, cat. 100-26), 500 nM SB-431542 (Selleckchem, cat. S1067), and 10 nM gastrin (Tocris Bioscience, cat. 3006). […]
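Note: spheroids exposed to compound for seven days before readout.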
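Throughout, for pIC50: luminescence signal used as a proxy for viable cells.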

- pIC50 (second compound 0.00316 µM): > 7.50
- pIC50 (second compound 0.01 µM): > 7.50
- pIC50 (second compound 0.0316 µM): > 7.50
- pIC50 (second compound 0.1 µM): > 7.50
- pIC50 (second compound 0.316 µM): > 7.50
- pIC50 (second compound 1 µM): > 7.50
Compound: Cc1nc(N2CCC3(CC2)COC(C)C3N)c(CO)nc1Sc1ccnc(N)c1Cl (configuration not stated) + C=CC(=O)N1CCN(c2nc(OCC3CCCN3C)nc3c(F)c(-c4nc(N)cc(C)c4C(F)(F)F)c(Cl)cc23)C(C)C1
- viability, T/C (second compound 0.00316 µM, first compound 0.0316 µM): 12.4%
- viability, T/C (second compound 0.00316 µM, first compound 0.1 µM): 7.94%
- viability, T/C (second compound 0.00316 µM, first compound 0.316 µM): 5.15%
- viability, T/C (second compound 0.00316 µM, first compound 1 µM): 4.23%
- viability, T/C (second compound 0.00316 µM, first compound 3.16 µM): 3.11%
- viability, T/C (second compound 0.00316 µM, first compound 10 µM): 3.36%
- viability, T/C (second compound 0.01 µM, first compound 0.0316 µM): 10.9%
- viability, T/C (second compound 0.01 µM, first compound 0.1 µM): 6.73%
- viability, T/C (second compound 0.01 µM, first compound 0.316 µM): 5.04%
- viability, T/C (second compound 0.01 µM, first compound 1 µM): 3.41%
- viability, T/C (second compound 0.01 µM, first compound 3.16 µM): 3.13%
- viability, T/C (second compound 0.01 µM, first compound 10 µM): 2.84%
- viability, T/C (second compound 0.0316 µM, first compound 0.0316 µM): 9.73%
- viability, T/C (second compound 0.0316 µM, first compound 0.1 µM): 7.78%
- viability, T/C (second compound 0.0316 µM, first compound 0.316 µM): 4.91%
- viability, T/C (second compound 0.0316 µM, first compound 1 µM): 3.38%
- viability, T/C (second compound 0.0316 µM, first compound 3.16 µM): 3.09%
- viability, T/C (second compound 0.0316 µM, first compound 10 µM): 2.69%
- viability, T/C (second compound 0.1 µM, first compound 0.0316 µM): 9.46%
- viability, T/C (second compound 0.1 µM, first compound 0.1 µM): 8.29%
- viability, T/C (second compound 0.1 µM, first compound 0.316 µM): 4.85%
- viability, T/C (second compound 0.1 µM, first compound 1 µM): 3.44%
- viability, T/C (second compound 0.1 µM, first compound 3.16 µM): 3.22%
- viability, T/C (second compound 0.1 µM, first compound 10 µM): 2.91%
- viability, T/C (second compound 0.316 µM, first compound 0.0316 µM): 10.3%
- viability, T/C (second compound 0.316 µM, first compound 0.1 µM): 7.09%
- viability, T/C (second compound 0.316 µM, first compound 0.316 µM): 5.95%
- viability, T/C (second compound 0.316 µM, first compound 1 µM): 4.14%
- viability, T/C (second compound 0.316 µM, first compound 3.16 µM): 3.2%
- viability, T/C (second compound 0.316 µM, first compound 10 µM): 3.39%
- viability, T/C (second compound 1 µM, first compound 0.0316 µM): 9.98%
- viability, T/C (second compound 1 µM, first compound 0.1 µM): 8.28%
- viability, T/C (second compound 1 µM, first compound 0.316 µM): 6.91%
- viability, T/C (second compound 1 µM, first compound 1 µM): 4.16%
- viability, T/C (second compound 1 µM, first compound 3.16 µM): 3.7%
- viability, T/C (second compound 1 µM, first compound 10 µM): 4.07%
